Assays:
[1] = tested on: NT-2 testicular cancer cells; test: Flow cytometric (propidium iodide) cell cycle analysis of NT-2 cells; format: cell-based; settings: first 24h
Experimental: FIG. 9: NT-2, testicular cancer cells, were incubated with Compound of formula (I) isomers for 24h and subjected to Flow Cytometric analysis to determine the alterations in cancer cell cycle. […] Therefore, only the P1 isomer of Compound of formula (I) was investigated further to determine its in vitro and in vivo efficacy.
The method for Propidium Iodide (PI) based cell cycle analysis was performed as per the instructions given by the manufacturer (AB139418; Abcam). Briefly NT-2 cells treated with Compound of formula (I) versions were harvested in single cell suspensions with each experimental condition containing two million cells, fixed in 66% Ethanol overnight at 4° C. The ethanol was removed thoroughly by centrifugation, followed by rehydration of cells in PBS with a repeat of centrifugation. Cells were stained in PI (1%) and RNase solution (1%) in PBS for 30 minutes at 37° C. in the dark. The cells were analyzed immediately on the Flow Cytometer.

[2] = tested on: BHQ1-pre-let7a and EGFP-Lin28A bound complexes; test: FRET assay, displacement of BHQ1-pre-let7a from EGFP-Lin28A; format: binding; settings: at 1 μM; 19B-let7a at 100 nM
Experimental: This method was adapted from Roos et al (2016). HEK 293-T cells (ATCC) were cultured as monolayers in DMEM GlutaMAX™-1 (Cat #31966-021, Gibco®, Life Technologies) supplemented with 10% of FBS (fetal bovine serum). Stable EGFP-Lin28A HEK 293-T cells were cultured as monolayers in DMEM supplemented with 10% of FBS (fetal bovine serum) and 0.5 mg/ml Geneticin G418 (10131-035, Life Technologies). Transfections were performed according to the manufacturer's protocol with […] (12252-011, Invitrogen, Life Technologies) for siRNAs and JetPEI (101-10, Polyplus transfections) was used for plasmid DNA. […]
160,000 HEK 293 T cells were seeded per well in 6 well plates and transfected with 320 ng pEGFP-C2-Lin28A plasmid according to the experimental setup with the reagents described above and cells were allowed to recover for 48h. […] The EGFP-lin28A| expressing cells were sorted using Fluorescence Activated Cell Sorting (FACS). Finally, larger colonies of individual clones were analyzed for expression levels of EGFP-Lin28A by performing the FRET assay. […]
FRET system (EGFP-Lin28A and 19B-let7a) treated with DMSO was used as positive control. […] The FRET measurements were obtained from the optimized fluorescence parameter. […] The average signal intensity and background fluorescence were corrected with compound self-fluorescence with and without binding buffer.

## CC[C@H](C)[C@H](NC(=O)[C@H](Cc1ncc[nH]1)NC(=O)c1cccc(C(N)=O)c1)C(=O)Nc1ccc(O)c(-c2nc3ccccc3s2)c1 [Compound P1]
[1]
  share of total cell count that had undergone cell death: approximately 10%
[2]
  reduction in FRET: 70%

From patent US20230391824A1, “RATIONALE, DESIGN, SYNTHESIS AND VALIDATION OF A SMALL MOLECULE ANTICANCER AGENT” (priority 2021, published 2023)
